Assay: 13C NMR pH titration of sodium lactate/lactic acid solutions, nonlinear least squares fit of Equation 5
Assay type: physicochemical
Settings: carboxyl group of lactic acid, about 1 weight % sodium lactate and lactic acid, pH about 2 to about 5.5, fit of 13C chemical shift vs pH
Procedure: In at least one implementation, the chemical species or molecular or molecular entity may be or include a carboxyl group, such as the carboxyl group of a lactic acid, where the observed C-13 chemical shift can be expressed according to equation (5): pH=pKa+log [(δC−δCO2H)/(δCO2^−−δC)] (5)
A calibration curve was prepared for measuring lactic acid with an NMR by using standardized buffered solutions of sodium lactate and lactic acid at different mole ratios in water at varying pH. The solutions included a total concentration of sodium lactate and lactic acid at about 1 weight %, and the pH was varied from a pH of about 2 to about 5.5. NMR was performed on the samples to obtain C-13 chemical shift values. A pH electrode was utilized to measure the pH of each of the standardized samples, and the calibration curve was prepared by correlating the measured C-13 chemical shift to the pH values measured by the pH electrode, as illustrated in FIG. 4. As such, the observed ^13C chemical shift of the carbonyl group (δC) was expressed as the weighted average of the ^13C chemical shift between CO2H (δCO2H) and CO2^−(δCO2^−). The pH of the carboxyl group was described in terms of pKa of the carboxyl group, as represented by Equation 5. pH=pKa+log [(δC−δCO2H)/(δCO2^−−δC)] (5)
The nonlinear least squares fit was applied to determine the values of the pKa, the δCO2^−, and the δCO2H.

- pKa: 3.73
SMILES: CC(O)C(=O)O (stereo not shown) [lactic acid]
